Tested on: mice subjected to the forced swim test
Test: Forced swim test on mice (duration of immobility)
Assay type: in vivo, Swiss white mice
Conditions: for Duration of immobility in seconds during the last four minutes of the six minute period: 20 minutes before test, N=4; for Activity in reducing immobility time compared with control (in words): 40 mg/Kg; for Percentage decrease in immobility times for dosage of 40 mg/kg: 40 mg/kg i.p.; for Percentage decrease in immobility times for dosage of 40 mg/kg / Percentage decrease in immobility times for dosage of 80 mg/kg: versus control; for Percentage decrease in immobility times for dosage of 80 mg/kg: 80 mg/kg i.p.
Source text: The antidepressant compounds can be used to treat depression. […] As exemplified in such technical articles as I Weiner et al., “A comparison of drug effects in latent inhibition and the forced swim test differentiates between the typical antipsychotic haloperidol, the atypical antipsychotics clozapine and olanzapine, and the antidepressants imipramine and paroxetine”, Behavioural Pharmacology (2003), Vol. 14, pp. 215-22, and D. A. Slattery et al., “Using the rat forced swim test to assess antidepressant-like activity in rodents”, Nature Protocols (2012), Vol. 7, pp. 1009-1014, the forced swim test is recognized in the pharmacological art as a standard test protocol for assessing antidepressant-like behavior induced by antidepressant compounds. The forced swimming test measures the duration of immobility of rodents exposed to the threat of drowning. Mice normally swim for 1-2 minutes and then turn helpless and become immobile. […] For example, the mouse may appear to float, i.e. almost immobile and with its head above water. The majority of known antidepressant drugs decrease the duration of immobility.
To test for the presence of anti-depressant activity of the test compounds 3, 4, 5 and 6, the forced swim test was conducted on mice. The forced swimming test was conducted generally in accordance with the procedures set forth in David, D. J. P. et al., Psychopharmacology (2003), 166, 373-382, with the exception of a slight modification in the dimensions of the vessel used as a swimming pool. The vessel was a glass cylinder having an internal diameter of 25 cm and included water having a depth of 15 cm and a temperature of about 22±2° C. Swiss white mice weighing 25 g each were divided into 17 groups (N=4). One group served as control and the others divided for each test compound.
The test compounds were dissolved in DMSO and administered in 4 dose levels of 10, 20, 40, 80 mg/kg, respectively, intraperitoneally (“i.p.”). The antidepressant compounds were administered to the mice 20 minutes before starting the swimming test. The control group was administered the vehicle only, in the same volume. Each mouse was allowed to stay in the swimming pool for 6 minutes. The duration of the period of immobility was measured at the beginning of the third minute of placing the mouse into the swimming pool and ended by the end of the sixth minute. In other words, the duration of immobility observed only during the last four minutes was recorded. For each test compound dose, the time of immobility was calculated and then averaged.

[1] = 40 mg/kg i.p. in DMSO, * P<0.05 compared with control
[2] = 80 mg/kg i.p. in DMSO, * P<0.05 compared with control

CNCC1CC2c3cccc(Cl)c3C1c1c(Cl)cccc12 (stereo not shown) [Compound 5]
Duration of immobility in seconds during the last four minutes of the six minute period (10 mg/kg i.p. in DMSO): 240 s
Duration of immobility in seconds during the last four minutes of the six minute period (20 mg/kg i.p. in DMSO): 200 ± 12.3 s
Activity in reducing immobility time compared with control (in words) (p<0.05, N=4): significantly active in reducing immobility time
Duration of immobility in seconds during the last four minutes of the six minute period [1]: 140 ± 7.9* seconds
Percentage decrease in immobility times for dosage of 40 mg/kg: 37.8%
Activity compared with compound 3 (in words) (80 mg/kg dosage, p<0.05, N=4): significantly more active than compound 3
Immobility time compared with the control (in words) (80 mg/kg dosage, p<0.05, N=4): significant decrease in immobility time
Duration of immobility in seconds during the last four minutes of the six minute period [2]: 36 ± 4.9* seconds
Percentage decrease in immobility times for dosage of 80 mg/kg: 84.0%

O=CC1CC2c3c(Cl)cccc3C1c1cccc(Cl)c12 (stereo not shown) [Compound 4, 1,8-dichloro-9,10-dihydro-9,10-ethanoanthracene-11-carbaldehyde]
Duration of immobility in seconds during the last four minutes of the six minute period (10 mg/kg i.p. in DMSO): 240 s
Duration of immobility in seconds during the last four minutes of the six minute period (20 mg/kg i.p. in DMSO): 240 s
Duration of immobility in seconds during the last four minutes of the six minute period [1]: 240 s
Duration of immobility in seconds during the last four minutes of the six minute period [2]: 240 s
Activity in the forced swim test (in words) (all doses tested (10, 20, 40, 80 mg/kg i.p.)): completely inactive

O=CC1CC2c3cccc(Cl)c3C1c1c(Cl)cccc12 (stereo not shown) [Compound 3, 4,5-dichloro-9,10-dihydro-9,10-ethanoanthracene-11-carbaldehyde]
Duration of immobility in seconds during the last four minutes of the six minute period (10 mg/kg i.p. in DMSO): 240 s
Duration of immobility in seconds during the last four minutes of the six minute period (20 mg/kg i.p. in DMSO): 240 s
Activity in reducing immobility time compared with control (in words) (p<0.05, N=4): significantly active in reducing immobility time
Duration of immobility in seconds during the last four minutes of the six minute period [1]: 160 ± 11* seconds
Percentage decrease in immobility times for dosage of 40 mg/kg: 28.9%
Immobility time compared with the control (in words) (80 mg/kg dosage, p<0.05, N=4): significant decrease in immobility time
Duration of immobility in seconds during the last four minutes of the six minute period [2]: 65 ± 4* seconds
Percentage decrease in immobility times for dosage of 80 mg/kg: 71.1%
